According to BigSolDB 2.1:

NNC(=O)c1ccncc1
solubility (mole fraction)
Details | 283.15 K | 288.15 K | 293.15 K | 298.15 K | 303.15 K | 308.15 K | 313.15 K | 318.15 K | 323.15 K
in DMF | 0.023 | 0.027 | 0.031 | 0.035 | 0.0412 | 0.0458 | 0.0511 | 0.0567 | 0.0649
in acetonitrile | 0.000725 | 0.000912 | 0.00109 | 0.00141 | 0.00169 | 0.002 | 0.00241 | 0.00288 | 0.00331
in ethanol | 0.00266 | 0.00318 | 0.00384 | 0.00465 | 0.00549 | 0.00646 | 0.00754 | 0.0087 | 0.00996
in ethyl acetate | 0.000976 | 0.0012 | 0.00136 | 0.0016 | 0.00195 | 0.00234 | 0.00279 | 0.00331 | 0.00374
in isopropanol | 0.0021 | 0.00253 | 0.00314 | 0.00373 | 0.00453 | 0.00558 | 0.00651 | 0.00804 | 0.00949
in methanol | 0.00574 | 0.0067 | 0.00797 | 0.00961 | 0.0112 | 0.0131 | 0.0151 | 0.0179 | 0.0211
in n-propanol | 0.00219 | 0.00264 | 0.00329 | 0.00419 | 0.00495 | 0.0059 | 0.00705 | 0.0084 | 0.00983
in water | 0.0106 | 0.0134 | 0.0159 | 0.0198 | 0.024 | 0.0296 | 0.0354 | 0.0421 | 0.0517
